Columns and labels:
Assay in all cases: relative viability (nuclei count vs DMSO), 5 days (fraction); higher = more cells survive
Cediranib + Foretinib = compound: COc1cc2c(Oc3ccc4[nH]c(C)cc4c3F)ncnc2cc1OCCCN1CCCC1 [Cediranib] + COc1cc2c(Oc3ccc(NC(=O)C4(C(=O)Nc5ccc(F)cc5)CC4)cc3F)ccnc2cc1OCCCN1CCOCC1 [Foretinib] (partner 0.25 µM)
Procedure, shortened: (§1)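 Lung cancer cell lines, seeded in 1536-well plates, were treated the following day by pin tool with a single drug or with five library-drug doses (not always all listed) in √10 steps on top of a fixed anchor-drug dose. Cells were fixed and nuclei stained in one step after 5 days, and nuclei were counted. Relative viability is the nuclei count for treated wells divided by that for vehicle wells, reported as medians of duplicate plates.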

[1] = compound: O=C(C[C@H]1NCCC[C@@H]1O)Cn1cnc2cc(Br)c(Cl)cc2c1=O (racemic) [Halofuginone] + CC(=O)Nc1cccc(-n2c(=O)n(C3CC3)c(=O)c3c(Nc4ccc(I)cc4F)n(C)c(=O)c(C)c32)c1 [Trametinib] (partner 0.02 µM)
Procedure, shortened: as §1

[2] = compound: O=C(C[C@H]1NCCC[C@@H]1O)Cn1cnc2cc(Br)c(Cl)cc2c1=O (racemic) [Halofuginone] + CC(=O)c1c(C)c2cnc(Nc3ccc(N4CCNCC4)cn3)nc2n(C2CCCC2)c1=O [Palbociclib] (partner 0.5 µM)
Procedure, shortened: as §1

[3] = compound: O=C(C[C@H]1NCCC[C@@H]1O)Cn1cnc2cc(Br)c(Cl)cc2c1=O (racemic) [Halofuginone] + C[C@]1(O)C[C@@H](c2nc(-c3ccc4ccc(-c5ccccc5)nc4c3)c3c(N)nccn32)C1 [Linsitinib] (partner 1 µM)
Procedure, shortened: as §1

| Cell Line | relative viability (Cediranib + Foretinib; first compound 0.04 µM) | relative viability (Cediranib + Foretinib; first compound 0.1265 µM) | relative viability (Cediranib + Foretinib; first compound 0.4 µM) | relative viability (Cediranib + Foretinib; first compound 1.265 µM) | relative viability (Cediranib + Foretinib; first compound 4 µM) | relative viability ([1]; first compound 0.001 µM) | relative viability ([1]; first compound 0.003162 µM) | relative viability ([1]; first compound 0.01 µM) | relative viability ([1]; first compound 0.03162 µM) | relative viability ([1]; first compound 0.1 µM) | relative viability ([2]; first compound 0.001 µM) | relative viability ([2]; first compound 0.003162 µM) | relative viability ([2]; first compound 0.01 µM) | relative viability ([2]; first compound 0.03162 µM) | relative viability ([2]; first compound 0.1 µM) | relative viability ([3]; first compound 0.001 µM) | relative viability ([3]; first compound 0.003162 µM) | relative viability ([3]; first compound 0.01 µM) | relative viability ([3]; first compound 0.03162 µM) | relative viability ([3]; first compound 0.1 µM) |
| --- | --- | --- | --- | --- | --- | --- | --- | --- | --- | --- | --- | --- | --- | --- | --- | --- | --- | --- | --- | --- |
| LU99A | 0.793 | 0.728 | 0.8 | 0.769 | 0.832 | 0.554 | 0.598 | 0.545 | 0.589 | 0.536 | 0.444 | 0.466 | 0.393 | 0.401 | 0.41 | 0.634 | 0.477 | 0.522 | 0.515 | 0.45 |
| LXF-289 | 1.02 | 0.822 | 0.912 | 0.982 | 0.936 | 0.688 | 0.717 | 0.66 | 0.707 | 0.676 | 0.553 | 0.608 | 0.577 | 0.603 | 0.581 | 0.938 | 1.05 | 0.877 | 0.954 | 0.923 |
| NCI-H23 | 1.07 |  | 0.939 | 0.863 | 1.03 | 0.413 | 0.407 | 0.392 | 0.402 | 0.217 | 0.694 | 0.501 | 0.479 | 0.562 | 0.331 | 0.656 | 0.573 | 0.556 | 0.692 | 0.211 |
| NCI-H322M | 1.15 | 1.04 | 0.946 | 0.912 | 0.922 | 0.512 | 0.441 | 0.513 | 0.479 | 0.423 | 0.549 | 0.475 | 0.45 | 0.465 | 0.357 | 0.919 | 1.02 | 0.907 | 1.04 | 0.926 |
| NCI-H358 | 0.712 | 0.809 | 0.677 | 0.616 | 0.763 | 0.158 | 0.138 | 0.12 | 0.119 | 0.0998 | 0.142 | 0.127 | 0.141 | 0.129 | 0.0899 | 0.779 | 0.707 | 0.629 | 0.273 | 0.19 |
| NCI-H441 | 1.09 |  | 0.87 | 0.794 | 1.14 | 0.48 | 0.428 | 0.493 | 0.471 | 0.233 | 0.254 | 0.241 | 0.206 | 0.241 | 0.152 | 0.6 | 0.651 | 0.525 | 0.561 | 0.353 |
| NCI-H460 | 1.01 | 1.02 | 1.02 | 0.944 | 1.04 | 0.115 | 0.197 | 0.172 | 0.0823 | 0.022 | 0.233 | 0.237 | 0.207 | 0.182 | 0.0284 | 0.696 | 0.833 | 0.78 | 0.404 | 0.0417 |
| NCI-H520 | 0.859 | 0.656 | 0.626 | 0.731 | 0.576 | 0.572 | 0.734 | 0.695 | 0.45 | 0.287 | 0.191 | 0.222 | 0.208 | 0.232 | 0.2 | 0.997 | 0.85 | 0.994 | 0.667 | 0.422 |
| NCI-H647 | 1.14 | 1.25 | 1.03 | 1.27 | 1.3 | 0.499 | 0.574 | 0.421 | 0.336 | 0.292 | 0.413 | 0.399 | 0.422 | 0.287 | 0.105 | 1.35 | 1.06 | 1.03 | 0.665 | 0.173 |
| NCI-H650 | 1.03 | 0.944 | 1 | 1.09 | 1.02 | 0.898 | 1.19 | 1.09 | 1.08 | 0.77 | 0.362 | 0.337 | 0.302 | 0.294 | 0.305 | 1.03 | 0.924 | 0.877 | 0.811 | 0.457 |
| NCI-H661 | 1.04 | 0.971 | 0.956 | 0.978 | 1.11 | 0.624 | 0.629 | 0.579 | 0.515 | 0.373 | 0.422 | 0.405 | 0.37 | 0.373 | 0.312 | 0.677 | 0.589 | 0.537 | 0.627 | 0.39 |
| NCI-H727 |  | 1.05 | 0.868 | 0.84 | 0.93 | 0.44 | 0.362 | 0.403 | 0.406 | 0.422 | 0.715 | 0.582 | 0.677 | 0.703 | 0.575 | 0.324 | 0.427 | 0.415 | 0.243 | 0.132 |
| NCI-H838 | 1.02 | 1.02 | 0.994 | 1.01 | 1.05 | 0.504 | 0.518 | 0.468 | 0.38 | 0.191 | 0.234 | 0.25 | 0.199 | 0.171 | 0.0921 | 1.03 | 0.857 | 0.94 | 0.549 | 0.127 |
| NCI-H1355 | 0.991 | 1.02 | 0.894 | 0.948 | 1.09 | 0.481 | 0.429 | 0.4 | 0.415 | 0.4 | 0.414 | 0.435 | 0.368 | 0.413 | 0.38 | 0.825 | 0.819 | 0.832 | 0.822 | 0.61 |

Reference: the supplement of paper PMC10307832
